These results are taken from publication PMC6894747 (PLoS Pathogens, 2019).

Where two headings read alike, the source gives them in different places. Positions of bridges follow the written chain, without caps; N, C: chain ends. Residues, ends and D or L forms follow the SMILES beside them.

In one data set the test system is HIV-1 IIIB. The data set is described as follows: Inhibitors alone or in combination against HIV-1 IIIB. The class given is cell-based. As for the experimental part: The samples were serially diluted and tested for their inhibitory activity on HIV-1 infection as described above. The data were analyzed for synergistic effect by calculating the combination index (CI) with the CalcuSyn software. CI values of <0.95 and >1.05 indicate synergy and antagonism, respectively. CI <0.1, 0.1–0.3, 0.3–0.7, 0.7–0.85, and 0.85–0.90 indicate very strong synergism, strong synergism, synergism, moderate synergism, and slight synergism, respectively. Fold of dose reduction was calculated with the ratio of concentrations of inhibitor testing alone and in combination.

Data set [1] relates to HIV-1 IIIB (subtype B, X4). The format is cell-based. The settings on record: IIIB (subtype B, X4).
Method: (§2) Briefly, 1×10^5/mL MT-2 or M7 cells were infected with different HIV-1 viruses at 100 TCID50 (50% tissue culture infective dose) in the presence or absence of peptides at graded concentrations overnight. Then the culture supernatants were replaced with equal volume of fresh medium. On the fourth day post-infection, supernatants were collected and mixed with equal volume of 5% Triton X-100. […] The IC50 values were calculated with CalcuSyn software [35–36], and inhibition curves of best fit were generated with GraphPad Prism.
The subject of data set [2] is HIV-1 Bal (subtype B, R5). The format is cell-based. The note with it: Bal (subtype B, R5).
Method: as §2
Another data set deals with rhesus monkey IgG. In words: Isothermal titration calorimetry (ITC). The format is binding. The settings on record: 300 μM peptide injected into 30 μM rhesus monkey IgG, PBS, 25 °C. As for the experimental part:
ITC assay was performed with an ITC microcalorimeter instrument (NANO ITC, TA Instruments, Lindon, UT) as described previously. In brief, 300 μM peptides were dissolved in PBS and injected into the chamber containing 30 μM of rhesus monkey IgG. The experiments were carried out at 25 °C. The time between injections was 300 s, and the stirring speed was 300 rpm. The heats of dilution were determined in control experiments by injecting peptides into PBS and then subtracting from the heats produced in the corresponding peptide-IgG binding experiments. Data acquisition and analysis were performed using the Origin software, and the best fitting curves were generated with GraphPad Prism.
On the technique in general: ITC needs no label: the signal is the heat of the interaction.

In another data set the test system is M7 cells. The data set is described as follows: Cytotoxicity assay (CCK-8). The format is cell-based. The note with it: up to 5 μM, 48 h, triplicate. The procedure:
(§1) The potential cytotoxicity of peptides on MT-2 and M7 cells was measured by using the Cell Counting Kit-8 according to the manufacturer’s instructions (CCK-8, Dojindo Laboratories, Kumamoto, Japan). Briefly, 100 μL of a peptide at graded concentrations were added to equal volumes of cells (10^4 cells/well) in a 96-well plate. Cell viability was evaluated using the CCK-8 kit after incubation at 37 °C for 2 days. Incubation with CCK-8 reagents at 37 °C for another 4 h, the absorbance at 450 nm was measured with an ELISA reader, and the percentage of cytotoxicity was calculated.

The subject of another data set is MT-2 cells. In words: Cytotoxicity assay (CCK-8). The format is cell-based. The note with it: up to 5 μM, 48 h, CCK-8; triplicate. The procedure: as §1
For data set [3], the system named is H9/HIV-1IIIB target cells with PBMC effector cells. The data set is described as follows: ADCC assay, 10E8-mediated lysis. The class given is cell-based, human. The settings on record: peptide up to 20 μM added to 10E8. As for the experimental part: H9/HIV-1IIIB cells expressing HIV-1 Env (2.5 × 10^4 cells) as the target cells were seeded into a 96-well plate (25 μL/well), and the mixture of a serially diluted inhibitors and 10E8 (1.5 μg/mL) was added to the culture plate. PBMC (AllCells) as effector cells (2.5 × 10^4 cells in 25 μL) were cocultured with the mixture-treated target cells at 37 °C overnight, and the […] activity was measured using the CytoTox-ONE Homogeneous Membrane Integrity Assay (Promega).

On the set-up of data set [4]: method as in PMID 16174446. The settings on record: reported value; cited from earlier work.

Broadly, the IC50 is the concentration that inhibits the measured activity by half. In the case of `CC1(C)CC(NC(=O)C(=O)Nc2ccc(Cl)cc2)CC(C)(C)N1` [NBD556], the IC50 in the data set with HIV-1 IIIB (experiment N6 / NBD556, HIV-1 IIIB, read-out: IC50 Alone) was 28.1 µM; in the data set with HIV-1 IIIB (mixture N6 / NBD556, HIV-1 IIIB, read-out: IC50 In mixture), 4.61 µM. The Dose reduction in the data set on HIV-1 IIIB (mixture N6 / NBD556, HIV-1 IIIB) is recorded as 6.1 fold.
In the case of `CC[C@H](C)[C@H](NC(=O)[C@H](CC(C)C)NC(=O)[C@H](CCC(=O)O)NC(=O)[C@H](CCC(=O)O)NC(=O)[C@@H](NC(=O)[C@H](CCCCN)NC(=O)[C@H](CCCCN)NC(=O)[C@@H](NC(=O)[C@H](Cc1ccc(O)cc1)NC(=O)[C@H](CCC(=O)O)NC(=O)[C@H](CCC(=O)O)NC(=O)[C@@H](NC(=O)[C@H](CCCCN)NC(=O)[C@H](CCCCN)NC(=O)[C@H](CC(=O)O)NC(=O)[C@H](Cc1c[nH]c2ccccc12)NC(=O)[C@H](CCC(=O)O)NC(=O)[C@H](CCC(=O)O)NC(=O)[C@H](Cc1c[nH]c2ccccc12)NC(=O)[C@@H](NC(=O)[C@@H](N)CCSC)[C@@H](C)O)[C@@H](C)CC)[C@@H](C)O)[C@@H](C)CC)C(=O)N[C@@H](CCCCN)C(=O)N[C@@H](CCCCN)C(=O)N[C@@H](CO)C(=O)N[C@@H](CC(=O)O)C(=O)N[C@H]1CSSC[C@@H](C(=O)N[C@H](C(=O)O)[C@@H](C)O)NC(=O)[C@H](Cc2c[nH]c3ccccc23)NC(=O)[C@H](C(C)C)NC(=O)[C@H](CC(C)C)NC(=O)[C@H](CCC(=O)O)NC(=O)CNC(=O)[C@H](CC(C)C)NC(=O)[C@H](Cc2c[nH]cn2)NC(=O)[C@H](Cc2c[nH]c3ccccc23)NC(=O)[C@H](C)NC1=O` [CP24-IBP] (H-MTWEEWDKKIEEYTKKIEELIKKSDCAWHLGELVWCT-OH; disulfide 26-36), the results for the IC50 in data set [1] and in data set [2] were 41.3 nM and 11 nM, respectively.
One may read the Kd as the constant that tells how readily two partners part at equilibrium. Consider `CC(C)C[C@@H]1NC(=O)[C@H](Cc2c[nH]cn2)NC(=O)[C@H](Cc2c[nH]c3ccccc23)NC(=O)[C@H](C)NC(=O)[C@@H](NC(=O)[C@@H](N)CC(=O)O)CSSC[C@@H](C(=O)N[C@H](C(=O)O)[C@@H](C)O)NC(=O)[C@H](Cc2c[nH]c3ccccc23)NC(=O)[C@H](C(C)C)NC(=O)[C@H](CC(C)C)NC(=O)[C@H](CCC(=O)O)NC(=O)CNC1=O` [IBP], for which the affinity on rhesus monkey IgG, expressed as Kd, was 2440 nM. In addition, the “in vitro cytotoxicity to M7 cells” value in the data set on M7 cells is “no in vitro cytotoxicity”. Also, the “in vitro cytotoxicity to MT-2 cells” value in the data set on MT-2 cells is listed as “no in vitro cytotoxicity”. Further, the “effect on 10E8-mediated lytic activity” value in data set [3] is listed as “remained about the same”.
enfuvirtide: the “reported t1/2” value in data set [4] is listed as 3 h.
